Molecules are shown by their SMILES.

For this series the following is noted: polymer system of polydimethylsiloxane vinyl terminated at various viscosity and a range of platinum-mono, di, tri and/or tetramethyldisiloxane complex.

Excerpt: The amount of vinyl siloxane cross-linker may determine the rate of the drug release and diffusivity of the polymer to the drug.

For `CC(=O)O[C@H]1C(=O)[C@@]2(C)[C@H]([C@H](OC(=O)c3ccccc3)[C@]3(O)C[C@H](OC(=O)[C@H](O)[C@@H](NC(=O)c4ccccc4)c4ccccc4)C(C)=C1C3(C)C)[C@]1(OC(C)=O)CO[C@@H]1C[C@@H]2O` [paclitaxel], the release profile result is reported as “acceptable”.

(Values after patent US10272260B2, “Methods and devices for diagnosing, monitoring, or treating medical conditions through an opening through an airway wall” (Broncus Medical Inc., priority 2011, dated 2019).)
